From patent US8383577B2 (Endo Pharmaceuticals Solutions, Inc., priority 2008, dated 2013)

Experiments:
[1] = cited from earlier work; for CMC: critical micelle concentration; for HLB: hydrophilic-lipophilic balance
[2] = Formulation study: effect of excipient on implant shape and durability (Example 3); assay type: physicochemical; settings: cartridges about 28% HEMA, about 66.5% HPMA, 5% glycerin
From the text: A series of implants was monitored to determine the effect of excipient on implant shape and durability. Each of the polymer cartridges was composed of about 28% HEMA, about 66.5% HPMA and 5% glycerin.

[3] = tested on: GH; settings: following a subcutaneous octreotide injection; cited from earlier work
[4] = tested on: IGF-1; settings: acromegaly patients on octreotide; cited from earlier work

Row | Compound | CMC [1] [mM] | HLB [1] | stabilization of the octreotide implant by excipient [2] | other results
1 | CCCCCCCC/C=C\CCCCCCCC(=O)OCCOCC(OCCO)C1OCC(OCCO)C1OCCO (stereo not shown) [Tween 80] | 0.012 | 15 |  | 
2 | O=C(O)CO [glycolic acid] |  |  | did not provide a stabilizing effect and resulted in a decrease in integrity | 
3 | OC[C@@H](O)[C@@H](O)[C@H](O)[C@H](O)CO [mannitol] |  |  | did not provide a stabilizing effect and resulted in a decrease in integrity | 
4 | L-cysteinamide, D-phenylalanyl-L-cysteiny-L-phenylalanyl-D-tryptophyl-L-lysyl-L-threonyl-N-[2-hydroxy-1-(hydroxymethyl)propyl]-, cyclic(2→7)-disulfide; [Octreotide, L-cysteinamide, D-phenylalanyl-L-cysteiny-L-phenylalanyl-D-tryptophyl-L-lysyl-L-threonyl-N-[2-hydroxy-1-(hydroxymethyl)propyl]-, cyclic(2→7)-disulfide; [R-(R*,R*)]] |  |  |  | time to GH level decrease [3]: usually decrease within two hours; patients with normalization of IGF-1 levels [4]: up to 60 % of patients
5 | Sucrose monolaurate | 0.2 | ~8 |  | 
6 | Triton X-100 | 0.2 to 0.9 | 13.5 |  | 
